Experimental data: patent US20110098177A1, “METHODS AND COMPOSITIONS OF PLANT MICRONUTRIENTS” (NOVUS INTERNATIONAL INC., priority 2006, published 2011)
“Also recorded” adds a separate entry of the source.

How the values were obtained:
Assay type in all cases: in vivo
Tygress tomato plants [1] = test: Yields of tomato fruits, greenhouse (Examples 4-6)
Experimental: (§1) The following experiments were performed in a green house during the fall of 2008 and spring of 2009 at GCREC, Balm, University of Florida. Crop set-up, procedures and variables were as follows.
(§2) Transplants of Tygress' tomato plants were planted in 2-gallon pots filled with commercial planting medium with nutrient concentration of Fe, Zn, Mn, Cu being negligible and insufficient for crop growth. Irrigation and non-micronutrient fertilizer were provided daily through microsprinklers at recommended rates for tomato production in Florida. No pesticides were used. Treatments were as described in Tables 4, 5 and 6 below.
(§3) Treatments were applied at 5 WAT (weeks after transplanting) using a water volume of 200 mL/plant. A non-ionic surfactant was added. Foliar tissue analysis was performed at 3 and 7 WAT on the non-applied newest leaves. The concentrations of N, P, K, Mg, Ca, B, Zn, Mn, Fe, and Cu in the foliar tissue were determined from foliar analysis by a commercial laboratory at 2 weeks before treatment and again at 2 weeks after treatment.
(§4) Deionized water was used for foliar applications, and other nutrients were applied as appropriate under non-limiting conditions. Marketable fruit were collected three times during the growing season, starting at 10 WAT (5 weeks after the initial treatment). Tomato fruit was graded as extra-large, large and medium. Non-marketable fruit were harvested and number and weight recorded but not sized.
(§5) Experimental design was a randomized complete block design with 6 replications. Data were analyzed using a general linear model, and means were separated using an LSD test at the 5% significance level.

Tygress tomato plants [2] = test: Foliar nutrient concentration 2 weeks after treatment, greenhouse tomato (Examples 4-6); details: Mn 2.0 lb/acre
Experimental: as §1, §2, §3, §4, §5

Tygress tomato plants [3] = test: Marketable yield, open-field tomato (Examples 7-10); details: open field; lb/acre/season: BIOX-Z 1.3, Cu 6.7, M 23.0, Fe 3.2, INC 4.0, INZ 0.6, CM 10.0, GZ 1.0, GF 4.0, EDZ 1.4, EDM 23.0
Experimental: (§6) The following experiments were performed in open-field plots during the spring of 2008 at GCREC, Balm, University of Florida. Four products delivering Zn (BIOX-Z), Mn (BIOX-M), Cu (BIOX-Cu), and Fe (BIOX-Fe) were compared to other micronutrient supplement formulations in tomato and bell pepper plants.
(§7) The plot sizes for the tomato plants were 30-ft plots (15 plants per plot) and 15-ft plots were used for the bell pepper plants (30 plants per plot). Crop set-up, procedures and variables were as follows.
(§8) Transplants of ‘Tygress’ tomato plants and ‘Patriot’ bell pepper plants in the 4-true leaf stage (about 6 inches tall) were planted in raised beds in open-field plots. The cross-section of each raised bed was 28 inches wide at the top, 32 inches wide at the base, and 8 inches tall. Irrigation and non-micronutrient fertilizer were provided daily through two drip lines per bed (0.45 gal/100 ft bed/min) at recommended rates for tomato and bell pepper production in Florida. […] The height of the plants for each of the treatment groups was measured at 3 weeks after transplantation (WAT), just prior to treatment with the experimental foliar fertilizers.
(§9) All foliar fertilizers except BIOX-CM were applied to the various treatment groups at 3 weeks after transplantation (WAT) and again at 5 WAT. The BIOX-CM treatment was applied at 4 and 5 WAT. The working water volume was 60 gal/acre and a non-ionic surfactant (Ad-Spray 80) was added in the amount of 2 pints/100 gal water. All plots were sprayed with sprayers pressurized at 25 psi and the canopies of both crops were covered with the micronutrient solutions. Treated plots were isolated during foliar fertilizer application to avoid the cross-contamination of other treatments on adjoining plots.
(§10) Leaf samples were collected from the most recent mature leaves from each plant at 6 WAT (2 weeks after initial treatment). Foliar tissue analysis was performed by a commercial laboratory to determine the concentration of N, P, K, Mg, Ca, B, Zn, Mn, Fe, and Cu. Tomato marketable fruit weights were collected at 10 and 12 WAT, and the fruits were graded according to USDA standards. Pepper marketable fruit weights were determined beginning at 5 WAT over 5 weekly harvests. Fruit mineral analysis (N, P, K, Mg, Ca, B, Zn, Mn, Fe, and Cu) was performed on samples from the tomato harvest.
(§11) The experimental design was a randomized complete block design with 5 replications for each treatment. All comparison data were analyzed using a general linear model and the means of each treatment were separated with a Fisher's protected LSD test at the 5% significance level.

Tygress tomato plants [4] = test: Foliar nutrient concentration at 6 WAT, open-field tomato (Examples 7-10); details: 6 WAT, open field
Experimental: as §6, §7, §8, §9, §10, §11

Tygress tomato plants [5] = test: Nutrient concentration of tomato fruits at 10 WAT, open field (Examples 7-10); details: 10 WAT, open field
Experimental: as §6, §7, §8, §9, §10, §11

[6] = test system: Patriot bell pepper plants; test: Foliar nutrient concentration at 6 WAT, open-field bell pepper (Examples 7-10); details: 6 WAT; open field; product rate as Table 17
Experimental: as §6, §7, §8, §9, §10, §11

[7] = test system: Patriot bell pepper plants; test: Marketable yield, open-field bell pepper (Examples 7-10); details: open field; lb/acre/season: BIOX-Z 1.3, Cu 6.7, M 23.0, Fe 3.2, INC 4.0, INZ 0.6, CM 10.0, GZ 1.0, GF 4.0, EDZ 1.4, EDM 23.0
Experimental: as §6, §7, §8, §9, §10, §11

**Q.** EDTA chelated manganese [BIOX-EDM] was tested. Which “Marketable tomato yield compared with non-treated control (in words)” value (Tygress tomato plants [1]; BIOX-M at 1.23 lb/acre or more, BIOX-EDM at 2.0 lb/acre, Mn-sulfate at 1.0 lb/acre) did it give?
**A.** The value was “significantly higher than the non-treated control”.

**Q.** And the Marketable yield (Tygress tomato plants [1]; Mn 2.0 lb/acre, tomato fruits)?
**A.** The Marketable yield was 4.4 a lb/plant.

**Q.** What about the “B concentration in tomato leaves” value (Tygress tomato plants [2]; 2 weeks after Mn treatment) of the same substance?
**A.** The value was 22 ppm.

**Q.** What about the “Ca concentration in tomato leaves” value (Tygress tomato plants [2]; 2 weeks after Mn treatment) of the same substance?
**A.** Its value is 0.6%.

**Q.** What about the “Cu concentration in tomato leaves” value (Tygress tomato plants [2]; 2 weeks after Mn treatment) of the same substance?
**A.** Its value is 5 ppm.

**Q.** And the “Fe concentration in tomato leaves” value (Tygress tomato plants [2]; 2 weeks after Mn treatment)?
**A.** Its value is 115 ppm.

**Q.** And the “K concentration in tomato leaves” value (Tygress tomato plants [2]; 2 weeks after Mn treatment)?
**A.** The value was 3.3%.

**Q.** And the “Mg concentration in tomato leaves” value (Tygress tomato plants [2]; 2 weeks after Mn treatment)?
**A.** Its value is 0.3%.

**Q.** And the “N concentration in tomato leaves” value (Tygress tomato plants [2]; 2 weeks after Mn treatment)?
**A.** The value was 3.3%.

**Q.** What about the “P concentration in tomato leaves” value (Tygress tomato plants [2]; 2 weeks after Mn treatment) of the same substance?
**A.** Its value is 0.5%.

**Q.** And the “Zn concentration in tomato leaves” value (Tygress tomato plants [2]; 2 weeks after Mn treatment)?
**A.** Its value is 32 ppm.

**Q.** And the “Foliar Mn concentration” value (Tygress tomato plants [2]; tomato leaves 2 weeks after Mn treatment)?
**A.** Its value is 78.5 a ppm.

**Q.** And the “Marketable yield, Tomato” value (Tygress tomato plants [3])?
**A.** Its value is 14.6 b ton/acre.

**Q.** And the “Foliar Zn concentration of tomato plants, statement” value (Tygress tomato plants [4])?
**A.** Its value is “significant increase”.

**Q.** What about the “Foliar concentration of K of tomato plants compared to control, statement” value (Tygress tomato plants [4]) of the same substance?
**A.** Its value is “significant increase”.

**Q.** What about the “Foliar concentration of Mn of tomato plants, statement” value (Tygress tomato plants [4]) of the same substance?
**A.** The value was “significant increase”.

**Q.** And the “Foliar concentration of P of tomato plants compared to control, statement” value (Tygress tomato plants [4])?
**A.** The value was “significant decrease”.

**Q.** What about the “Foliar B concentration of tomato plants” value (Tygress tomato plants [4]; product rate as Table 17) of the same substance?
**A.** The value was 60 ppm.

**Q.** What about the “Foliar Ca concentration of tomato plants” value (Tygress tomato plants [4]; product rate as Table 17) of the same substance?
**A.** Its value is 2.2%.

**Q.** And the “Foliar Cu concentration of tomato plants” value (Tygress tomato plants [4]; product rate as Table 17)?
**A.** The value was 409 ppm.

**Q.** What about the “Foliar Fe concentration of tomato plants” value (Tygress tomato plants [4]; product rate as Table 17) of the same substance?
**A.** The value was 100 ppm.

**Q.** And the “Foliar K concentration of tomato plants” value (Tygress tomato plants [4]; product rate as Table 17)?
**A.** The value was 6.2 a %.

**Q.** And the “Foliar Mg concentration of tomato plants” value (Tygress tomato plants [4]; product rate as Table 17)?
**A.** The value was 0.82%.

**Q.** What about the “Foliar Mn concentration of tomato plants” value (Tygress tomato plants [4]; product rate as Table 17) of the same substance?
**A.** The value was 348 b ppm.

**Q.** What about the “Foliar N concentration of tomato plants” value (Tygress tomato plants [4]; product rate as Table 17) of the same substance?
**A.** Its value is 4.9%.

**Q.** What about the “Foliar P concentration of tomato plants” value (Tygress tomato plants [4]; product rate as Table 17) of the same substance?
**A.** The value was 0.22 ab %.

**Q.** And the “Foliar Zn concentration of tomato plants” value (Tygress tomato plants [4]; product rate as Table 17)?
**A.** The value was 333 a ppm.

**Q.** And the “Nutrient concentrations in tomato fruits, statement” value (Tygress tomato plants [5])?
**A.** The value was “significant increases in micronutrient concentrations of Zn, Mn, Fe, and Cu; also recorded: highest Mn concentration in the resulting tomato fruit”.

**Q.** What about the “B concentration of tomato fruits” value (Tygress tomato plants [5]; product rate as Table 17) of the same substance?
**A.** Its value is 24 ppm.

**Q.** What about the “Ca concentration of tomato fruits” value (Tygress tomato plants [5]; product rate as Table 17) of the same substance?
**A.** The value was 0.2%.

**Q.** And the “Cu concentration of tomato fruits” value (Tygress tomato plants [5]; product rate as Table 17)?
**A.** The value was 27 a ppm.

**Q.** What about the “Fe concentration of tomato fruits” value (Tygress tomato plants [5]; product rate as Table 17) of the same substance?
**A.** The value was 110 a ppm.

**Q.** What about the “K concentration of tomato fruits” value (Tygress tomato plants [5]; product rate as Table 17) of the same substance?
**A.** Its value is 8.6%.

**Q.** And the “Mg concentration of tomato fruits” value (Tygress tomato plants [5]; product rate as Table 17)?
**A.** Its value is 0.39%.

**Q.** What about the “Mn concentration of tomato fruits” value (Tygress tomato plants [5]; product rate as Table 17) of the same substance?
**A.** Its value is 60 a ppm.

**Q.** And the “N concentration of tomato fruits” value (Tygress tomato plants [5]; product rate as Table 17)?
**A.** The value was 4.3%.

**Q.** And the “P concentration of tomato fruits” value (Tygress tomato plants [5]; product rate as Table 17)?
**A.** Its value is 0.63%.

**Q.** And the “Zn concentration of tomato fruits” value (Tygress tomato plants [5]; product rate as Table 17)?
**A.** Its value is 939 a ppm.

**Q.** And the “Foliar B concentration of bell pepper plants” value [6]?
**A.** The value was 64 ppm.

**Q.** And the “Foliar Ca concentration of bell pepper plants” value [6]?
**A.** The value was 4.4%.

**Q.** And the “Foliar Cu concentration of bell pepper plants” value [6]?
**A.** Its value is 411 ppm.

**Q.** What about the “Foliar Fe concentration of bell pepper plants” value [6] of the same substance?
**A.** Its value is 138 ppm.

**Q.** What about the “Foliar K concentration of bell pepper plants” value [6] of the same substance?
**A.** The value was 3.6%.

**Q.** What about the “Foliar Mg concentration of bell pepper plants” value [6] of the same substance?
**A.** Its value is 0.52%.

**Q.** And the “Foliar Mn concentration of bell pepper plants” value [6]?
**A.** The value was 563 ppm.

**Q.** What about the “Foliar N concentration of bell pepper plants” value [6] of the same substance?
**A.** The value was 4.4%.

**Q.** And the “Foliar P concentration of bell pepper plants” value [6]?
**A.** Its value is 0.28%.

**Q.** And the “Foliar Zn concentration of bell pepper plants” value [6]?
**A.** The value was 67 ppm.

**Q.** What about the “Marketable yield, Bell Pepper” value [7] of the same substance?
**A.** The value was 7.6 ton/acre.
